Reference: patent publication US20260199323A1, “LIGAND COMPOUNDS FOR E3 UBIQUITIN LIGASE, PROTEIN DEGRADERS DEVELOPED ON BASIS OF LIGAND COMPOUNDS, AND USES THEREOF” (GLUETACS THERAPEUTICS (SHANGHAI) CO., LTD., priority 2021, published 2026)
Read-outs that look alike come from different tables or passages of the source.

How the values were obtained:
CCRF-CEM = assay: CCK-8 tumor cell proliferation, CCRF-CEM; format: cell-based, Human; conditions: Homo sapiens, CCRF-CEM, read-out: IC50 inhibiting proliferation of tumor cells, CCRF-CEM
Method in brief: (§1)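 Proliferation was measured by CCK-8. Plated cells received compound 24 h later at ten 5-fold dilutions beginning at 10 μM.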

HGC-27 = assay: CCK-8 tumor cell proliferation, HGC-27; format: cell-based, Human; conditions: Homo sapiens; Table 18, FAK inhibitor based; HGC-27; read-out: IC50 inhibiting proliferation of tumor cells, HGC-27
Method: (§2) The tumor cells used herein were cultured in a cell culture medium listed in table 4 at 37° C. in an incubator with 5% CO2. Prior to experimentation, all cells used were correctly identified by STR profiling, and tested negative for mycoplasma through routine screenings.
(§3) IC50 values of the compounds of the present disclosure (including the compounds in Tables 1 and 3, and compounds of examples) were measured using the Meilun Cell Counting Kit-8 kit from Dalian Meilun Biotech Co., Ltd. Assay details are as follows: tumor cells were seeded in a 96-well plate at a density listed in Table 5. After 24 h, 100 μL of the inoculated cells were treated with 0.5 μL of the compounds of the present disclosure (including the compounds in Tables 1 and 3, and compounds of examples) at 10 different successively decreasing concentrations (starting at the highest concentration of 10 μM; 5-fold serial dilutions). After the cells were treated with the compounds of the present disclosure for a period of time, the cell viability detection reagent was added to the culture medium for cell viability assessment according to the instructions provided with the CCK-8 kit. […] The growth inhibition of the compounds of the present disclosure on cells was plotted by Prism Graphpad software, and the IC50 values of the compounds of the present disclosure were calculated therefrom.

MDA-MB-231 = assay: CCK-8 tumor cell proliferation, MDA-MB-231; format: cell-based, Human; conditions: Homo sapiens; Table 18, FAK inhibitor based; MDA-MB-231; read-out: IC50 inhibiting proliferation of tumor cells, MDA-MB-231
Method in brief: as §1

SR = assay: CCK-8 tumor cell proliferation, SR; format: cell-based, Human; conditions: Homo sapiens; Table 18, FAK inhibitor based; SR; read-out: IC50 inhibiting proliferation of tumor cells, SR
Method in brief: as §1

Mino = assay: CCK-8 tumor cell proliferation, Mino; format: cell-based, Human; conditions: Homo sapiens; Table 18, FAK inhibitor based; Mino; read-out: IC50 inhibiting proliferation of tumor cells, Mino
Method in brief: as §1

SW620 = assay: CCK-8 tumor cell proliferation, SW620; format: cell-based, Human; conditions: Homo sapiens, SW-620, SW620, read-out: IC50 inhibiting proliferation of tumor cells, SW620
Method in brief: as §1

PC-9 = assay: CCK-8 tumor cell proliferation, PC-9; format: cell-based, Human; conditions: Homo sapiens; Table 18, FAK inhibitor based; PC-9; read-out: IC50 inhibiting proliferation of tumor cells, PC-9
Hep3B2.7-1 = assay: CCK-8 tumor cell proliferation, Hep3B2.7-1; format: cell-based, Human; conditions: Homo sapiens; Table 22; HEP3B2.7-1; given as number; read-out: IC50 inhibiting proliferation of tumor cells, HEP3B2.7-1
Method: as §2, §3

Kasumi-1 = assay: CCK-8 tumor cell proliferation, Kasumi-1; format: cell-based, Human; conditions: Homo sapiens; Table 22; Kasumi-1; given as number; read-out: IC50 inhibiting proliferation of tumor cells, Kasumi-1
Method in brief: as §1

MM.1S = assay: CCK-8 tumor cell proliferation, MM.1S; format: cell-based; conditions: Homo sapiens, MM1.S; Table 22; MM.1S; given as number; read-out: IC50 inhibiting proliferation of tumor cells, MM.1S
Method in brief: as §1

T47D = assay: CCK-8 tumor cell proliferation, T47D; format: cell-based, Human
Method: as §2, §3

MM.1R = assay: CCK-8 tumor cell proliferation, MM.1R; format: cell-based; conditions: Table 22, given as number, read-out: IC50 inhibiting proliferation of tumor cells, MM.1R
Method in brief: as §1

Jurkat = assay: CCK-8 tumor cell proliferation, Jurkat; format: cell-based, Human; conditions: Homo sapiens, read-out: IC50 inhibiting proliferation of tumor cells, Jurkat
Method in brief: as §1

SU-DHL-4 = assay: CCK-8 tumor cell proliferation, SU-DHL-4; format: cell-based, Human; conditions: Homo sapiens, Table 19, IRAK4 inhibitor based, read-out: IC50 inhibiting proliferation of tumor cells, SU-DHL-4
Method: as §2, §3

LNcap = assay: CCK-8 tumor cell proliferation, LNcap; format: cell-based, Human; conditions: Homo sapiens; Table 19, IRAK4 inhibitor based; Lncap; read-out: IC50 inhibiting proliferation of tumor cells, Lncap
Method in brief: as §1

CAL-62 = assay: CCK-8 tumor cell proliferation, CAL-62; format: cell-based, Human; conditions: Homo sapiens; Table 19, IRAK4 inhibitor based; CAL-62; read-out: IC50 inhibiting proliferation of tumor cells, CAL-62
Method in brief: as §1

[1] = Table 19, IRAK4 inhibitor based

SMILES | IC50 (CCRF-CEM; Table 18, FAK inhibitor based) [nM] | IC50 (HGC-27) [nM] | IC50 (MDA-MB-231) [nM] | IC50 (SR) [nM] | IC50 (SW620; Table 18, FAK inhibitor based) [nM] | IC50 (PC-9) [nM] | also measured
CNC(=O)c1ccccc1Nc1cc(Nc2ccc(N3CCN(Cc4ccc5c(c4)CN(C4CCC(=O)NC4=O)C5=O)CC3)cc2OC)ncc1C(F)(F)F (centres unmarked) [GT-03014, 2-((2-((4-(4-((2-(2,6-dioxopiperidin-3-yl)-1-oxoisoindolin-5-yl)methyl)piperazin-1-yl)-2-methoxyphenyl)amino)-5-(trifluoromethyl)pyridin-4-yl)amino)-N-methylbenzamide] | < 50 | 1000 to 5000 | 50 to 100 | 100 to 500 | < 50 | 1000 to 5000 | IC50 (Mino): < 50 nM
O=C(Nc1cnn2ccc(N3CCC[C@@H]3c3cc(F)ccc3F)nc12)N1CC[C@H](O)C1 [larotrectinib] | – | – | – | – | – | – | IC50 (CCRF-CEM; Table 22, given as number): > 10000 nM; IC50 (Hep3B2.7-1): > 10 µM; IC50 (Kasumi-1): > 10 µM; IC50 (MM.1S): > 10 µM; IC50 (T47D; Homo sapiens, Table 22, T47D, given as number, read-out: IC50 inhibiting proliferation of tumor cells, T47D): > 10 µM; IC50 (MM.1R): > 10 µM; IC50 (Jurkat; Table 22, given as number): > 10000 nM
CN(CCOc1ccc(/C(=C(/CCCl)c2ccccc2)c2ccccc2)cc1)Cc1ccc2c(c1)CN(C1CCC(=O)NC1=O)C2=O (centres unmarked) [GT-02970, (Z)-3-(5-(((2-(4-(4-chloro-1,2-diphenylbut-1-en-1-yl)phenoxy)ethyl)(methyl)amino)methyl)-1-oxoisoindolin-2-yl)piperidine-2,6-dione] | – | – | – | – | – | – | IC50 for inhibiting the proliferation of tumor cells, T47D (T47D; Table 8, designed based on ER inhibitors, 96 h): A+
CNC(=O)c1ccccc1Nc1cc(Nc2ccc(N3CCC(NCc4ccc5c(c4)CN(C4CCC(=O)NC4=O)C5=O)CC3)cc2OC)ncc1C(F)(F)F (centres unmarked) [GT-03213, 2-((2-((4-(4-(((2-(2,6-dioxopiperidin-3-yl)-1-oxoisoindolin-5-yl)methyl)amino)piperidin-1-yl)-2-methoxyphenyl)amino)-5-(trifluoromethyl)pyridin-4-yl)amino)-N-methylbenzamide] | 100 to 500 | 500 to 1000 | < 50 | < 50 | 500 to 1000 | 500 to 1000 | –
CNC(=O)c1ccccc1Nc1cc(Nc2ccc(N3CCC(N4CCN(Cc5ccc6c(c5F)CN(C5CCC(=O)NC5=O)C6=O)CC4)CC3)cc2OC)ncc1C(F)(F)F (centres unmarked) [GT-03595, 2-((2-((4-(4-(4-((2-(2,6-dioxopiperidin-3-yl)-4-fluoro-1-oxoisoindolin-5-yl)methyl)piperazin-1-yl)piperidin-1-yl)-2-methoxyphenyl)amino)-5-(trifluoromethyl)pyridin-4-yl)amino)-N-methylbenzamide] | 100 to 500 | 100 to 500 | 100 to 500 | < 50 | – | 500 to 1000 | –
O=C1CCC(N2Cc3cc(CN4CCC(n5cc(NC(=O)c6coc(-c7ccnc(NCC8CC8)c7)n6)c(C(F)F)n5)CC4)cc(F)c3C2=O)C(=O)N1 (centres unmarked) [GT-04172, 2-(2-((cyclopropylmethyl)amino)pyridin-4-yl)-N-(3-(difluoromethyl)-1-(1-((2-(2,6-dioxopiperidin-3-yl)-7-fluoro-1-oxoisoindolin-5-yl)methyl)piperidin-4-yl)-1H-pyrazol-4-yl)oxazole-4-carboxamide] | – | – | – | – | – | – | IC50 (SU-DHL-4): 100 to 500 nM; IC50 (CCRF-CEM; [1]): < 50 nM; IC50 (SW620; [1]): < 50 nM; IC50 (LNcap): < 50 nM; IC50 (Jurkat; [1]): < 50 nM; IC50 (CAL-62): < 50 nM
O=C1CCC(N2Cc3cc(CN4CCC(n5cc(NC(=O)c6coc(-c7ccnc(NCC(F)(F)F)c7)n6)c(C(F)F)n5)CC4)ccc3C2=O)C(=O)N1 (centres unmarked) [GT-04120, N-(3-(difluoromethyl)-1-(1-((2-(2,6-dioxopiperidin-3-yl)-1-oxoisoindolin-5-yl)methyl)piperidin-4-yl)-1H-pyrazol-4-yl)-2-(2-((2,2,2-trifluoroethyl)amino)pyridin-4-yl)oxazole-4-carboxamide] | – | – | – | – | – | – | IC50 (SU-DHL-4): < 50 nM; IC50 (CCRF-CEM; [1]): < 50 nM; IC50 (SW620; [1]): < 50 nM; IC50 (LNcap): < 50 nM; IC50 (Jurkat; [1]): < 50 nM; IC50 (CAL-62): < 50 nM
CNC(=O)c1ccccc1Nc1cc(Nc2ccc(N3CCC(N4CCN(Cc5ccc6c(c5)CN(C5CCC(=O)NC5=O)C6=O)CC4)CC3)cc2OC)ncc1C(F)(F)F (centres unmarked) [GT-03266, 2-((2-((4-(4-(4-((2-(2,6-dioxopiperidin-3-yl)-1-oxoisoindolin-5-yl)methyl)piperazin-1-yl)piperidin-1-yl)-2-methoxyphenyl)amino)-5-(trifluoromethyl)pyridin-4-yl)amino)-N-methylbenzamide] | 100 to 500 | 500 to 1000 | 100 to 500 | 50 to 100 | 100 to 500 | 100 to 500 | IC50 (Mino): 1000 to 5000 nM

Now from value to compound, other results behind:

IC50 (CCRF-CEM; Table 18, FAK inhibitor based) [nM] | IC50 (HGC-27) [nM] | IC50 (MDA-MB-231) [nM] | IC50 (SR) [nM] | IC50 (SW620; Table 18, FAK inhibitor based) [nM] | IC50 (PC-9) [nM] | SMILES | also measured
500 to 1000 | 1000 to 5000 | 1000 to 5000 | 100 to 500 | < 50 | 500 to 1000 | CNC(=O)c1ccccc1Nc1cc(Nc2ccc(N3CCOCC3)cc2OC)ncc1C(F)(F)F [PND-1186, reference compound] | IC50 (Mino): 500 to 1000 nM
100 to 500 | 500 to 1000 | 500 to 1000 | 50 to 100 | – | 1000 to 5000 | CNC(=O)c1ccccc1Nc1cc(Nc2ccc(N3CCC(N4CCN(Cc5cc6c(cc5F)C(=O)N(C5CCC(=O)NC5=O)C6)CC4)CC3)cc2OC)ncc1C(F)(F)F (centres unmarked) [GT-03596, 2-((2-((4-(4-(4-((2-(2,6-dioxopiperidin-3-yl)-6-fluoro-1-oxoisoindolin-5-yl)methyl)piperazin-1-yl)piperidin-1-yl)-2-methoxyphenyl)amino)-5-(trifluoromethyl)pyridin-4-yl)amino)-N-methylbenzamide] | –
100 to 500 | 500 to 1000 | 500 to 1000 | 50 to 100 | – | 500 to 1000 | CNC(=O)c1ccccc1Nc1cc(Nc2ccc(N3CCC(N4CCN(Cc5cc(F)c6c(c5)CN(C5CCC(=O)NC5=O)C6=O)CC4)CC3)cc2OC)ncc1C(F)(F)F (centres unmarked) [GT-03597, 2-((2-((4-(4-(4-((2-(2,6-dioxopiperidin-3-yl)-7-fluoro-1-oxoisoindolin-5-yl)methyl)piperazin-1-yl)piperidin-1-yl)-2-methoxyphenyl)amino)-5-(trifluoromethyl)pyridin-4-yl)amino)-N-methylbenzamide] | –
